The values below come from patent publication US20090170886A1 (Pfizer Inc, priority 2005, published 2009).

Numbering of substitutions follows the chain as printed. Where two headings read alike, the source gives them in different places.

Data set [1] has as its target T1, hAR (human androgen receptor, baculovirus/Sf9 generated extracts) (Homo sapiens, UniProt P10275).
T1 construct: made in house; host or cells: baculovirus/Sf9 insect cells (crude extract)
T1 sequence (P10275 1-920): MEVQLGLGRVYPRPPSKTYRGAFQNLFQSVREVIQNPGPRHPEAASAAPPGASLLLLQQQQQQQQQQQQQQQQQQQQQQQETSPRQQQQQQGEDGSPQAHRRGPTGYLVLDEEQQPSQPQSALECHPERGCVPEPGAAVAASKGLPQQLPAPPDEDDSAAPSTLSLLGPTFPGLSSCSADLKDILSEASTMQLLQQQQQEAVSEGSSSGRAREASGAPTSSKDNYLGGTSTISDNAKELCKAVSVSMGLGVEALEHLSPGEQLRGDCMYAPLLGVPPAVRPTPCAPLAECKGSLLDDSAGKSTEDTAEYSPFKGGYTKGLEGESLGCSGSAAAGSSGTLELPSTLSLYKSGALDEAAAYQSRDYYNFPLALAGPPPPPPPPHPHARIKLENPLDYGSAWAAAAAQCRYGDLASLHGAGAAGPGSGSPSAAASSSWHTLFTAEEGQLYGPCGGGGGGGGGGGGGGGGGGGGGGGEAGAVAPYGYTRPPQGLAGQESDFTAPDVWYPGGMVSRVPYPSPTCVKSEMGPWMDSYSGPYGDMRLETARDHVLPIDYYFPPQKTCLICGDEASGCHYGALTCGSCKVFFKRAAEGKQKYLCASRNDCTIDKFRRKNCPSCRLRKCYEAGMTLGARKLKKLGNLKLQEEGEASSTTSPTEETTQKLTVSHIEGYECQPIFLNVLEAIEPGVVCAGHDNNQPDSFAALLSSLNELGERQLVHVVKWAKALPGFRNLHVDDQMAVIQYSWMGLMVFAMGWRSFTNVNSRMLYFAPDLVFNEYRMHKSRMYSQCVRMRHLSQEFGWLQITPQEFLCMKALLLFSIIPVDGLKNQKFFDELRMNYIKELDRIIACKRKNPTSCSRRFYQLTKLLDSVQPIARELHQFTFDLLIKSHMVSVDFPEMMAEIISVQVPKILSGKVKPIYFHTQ
The data set can be described thus: AR Binding Assay (competitive binding with 3H-DHT tracer). The settings on record: 1 nM 3H-DHT, one hour at 4° C., mean of multiple tests. In outline:
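Compounds at decreasing concentrations were incubated with baculovirus/Sf9 hAR extract, hydroxylapatite and 1 nM ^3H-DHT for one hour at 4° C., then washed three times. The value is the compound concentration inhibiting half of maximum ^3H-DHT binding, reported as the mean of multiple tests.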

Data set [2] concerns the target T2, androgen receptor in MDA-MB453-MMTV clone 54-19 cells (Homo sapiens, UniProt P10275).
T2 sequence (P10275 1-920 Q868H): T1 sequence (P10275 1-920) with Q868H
The data set can be described thus: AR Antagonist Cell Assay (MMTV-luciferase reporter, DHT-induced). The format is cell-based. Conditions: MDA-MB453-MMTV clone 54-19, 100 pM DHT, 17 hr; mean of multiple tests. In outline: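 MDA-MB453 cells stably carrying an ARE-containing MMTV-luciferase reporter, in phenol red-free medium with 1% charcoal-treated serum, preincubated 30 min with compound (0.32-1000 nM), then stimulated with 100 pM DHT for 17 h at 37 °C. Luminescence read; percent inhibition of DHT fold induction.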

Data set [3] relates to spinal BMD. The settings on record: after 7 years of treatment; cited from earlier work.
The mark [4] stands for this setting: hAR extract, read-out: AR Binding IC50.

`Cc1cccc(COc2ccc(C#N)cc2Cl)c1` [Example 40, 3-Chloro-4-(3-methyl-benzyloxy)-benzonitrile] registered a melting point of 73 to 75 °C. Besides, the 50% inhibitory concentration (IC50) in data set [1] (setting [4]) was found to be 783 nM.
For `C[C@H](Oc1ccc(C#N)c(C(F)(F)F)c1)c1ccccc1` [Example 2, (S)-4-(1-Phenyl-ethoxy)-2-trifluoromethyl-benzonitrile], the IC50 in data set [1] (AR Binding IC50, hAR extract) turned out to be 13 nM; in data set [2], 381 nM.
On the same counts, the results for `Cc1cccc(C(C)Oc2ccc(C#N)c(C(F)(F)F)c2)c1` (stereo not drawn) [Example 51, 4-(1-m-Tolyl-ethoxy)-2-trifluoromethyl-benzonitrile] are 108 nM and above 1000 nM.
On to `CCCCCCC(Oc1ccc(C#N)c(C(F)(F)F)c1)c1ccccc1` (stereo not drawn) [Example 46, 4-(1-Phenyl-heptyloxy)-2-trifluoromethyl-benzonitrile], for which the half-inhibitory concentration (IC50) was 204 nM in data set [1] (setting [4]) and above 1000 nM in data set [2].
In the case of `NCCCC(O)(P(=O)(O)O)P(=O)(O)O` [alendronate], the “increase in spinal BMD” value in data set [3] was at most 11%.
With `CC(Oc1ccc(C#N)c(C(F)(F)F)c1)c1ccc(F)cc1` (stereo not drawn) [Example 25, 4-[1-(4-Fluoro-phenyl)-ethoxy]-2-trifluoromethyl-benzonitrile], the IC50 is 137 nM in data set [1] (AR Binding IC50, hAR extract) and 92 nM in data set [2].
Regarding `CCOc1ccccc1COc1ccc(C#N)c(C(F)(F)F)c1` [Example 55, 4-(2-Ethoxy-benzyloxy)-2-trifluoromethyl-benzonitrile], the IC50 in data set [1] (setting [4]) is 125 nM; in data set [2], above 1000 nM.
Regarding `CC(Oc1ccc(C#N)c(C(F)(F)F)c1)c1cccc(O)c1` (single isomer, unassigned; (+)) [Example 10, (+)-4-[1-(3-Hydroxyphenyl)ethoxy]-2-(trifluoromethyl)benzonitrile], the IC50 in data set [1] (AR Binding IC50, hAR extract) was 3 nM; in data set [2], at least 1000 nM.
The like results for `CCCC(Oc1ccc(C#N)c(C(F)(F)F)c1)c1cncc(O)c1` (stereo not drawn) [Example 95, 4-[1-(5-Hydroxy-pyridin-3-yl)-butoxy]-2-trifluoromethyl-benzonitrile] were, in that order, 68 nM and 37 nM.
Take `CC(C)CC(Oc1ccc(C#N)c(C(F)(F)F)c1)c1ccccn1` (stereo not drawn) [Example 83, 4-(3-Methyl-1-pyridin-2-yl-butoxy)-2-trifluoromethyl-benzonitrile]: the results for the IC50 in data set [1] (setting [4]) and in data set [2] were 119 nM and above 1000 nM, respectively.
On the same counts, the results for `COc1cccc(C(C)Oc2ccc(C#N)c(C(F)(F)F)c2)c1` (stereo not drawn) [Example 4, 4-[1-(3-Methoxy-phenyl)-ethoxy]-2-t-trifluoromethyl-benzonitrile] are 78 nM and above 1000 nM.
The like results for `N#Cc1ccc(OC(Cc2ccccc2)c2ccccn2)cc1C(F)(F)F` (stereo not drawn) [Example 82, 4-(2-Phenyl-1-pyridin-2-yl-ethoxy)-2-trifluoromethyl-benzonitrile] were, in that order, 238 nM and above 1000 nM.
As to `CC(Oc1ccc(C#N)c(C(F)(F)F)c1)c1ccccc1C(F)(F)F` (stereo not drawn) [Example 31, 2-Trifluoromethyl-4-[1-(2-trifluoromethyl-phenyl)-ethoxy]-benzonitrile], the 50% inhibitory concentration (IC50) in data set [1] (setting [4]) was 146 nM; in data set [2], 398 nM.
Take `CCCC(Oc1ccc(C#N)c(C(F)(F)F)c1)c1ccccn1` (stereo not drawn) [Example 81, 4-(1-Pyridin-2-yl-butoxy)-2-trifluoromethyl-benzonitrile]: the IC50 in data set [1] (AR Binding IC50, hAR extract) is 54.3 nM; in data set [2], 280 nM.
Regarding `Cc1ccc(C)c(C(C)Oc2ccc(C#N)c(Cl)c2)c1` (stereo not drawn) [Example 61, 2-Chloro-4-[1-(2,5-dimethyl-phenyl)-ethoxy]-benzonitrile], the IC50 in data set [1] (AR Binding IC50, hAR extract) is 61 nM; in data set [2], above 1000 nM.
On to `COc1cc(OCCc2cccc(F)c2)ccc1C#N` [Example 71B, 4-[2-(3-Fluoro-phenyl)-ethoxy]-2-methoxy-benzonitrile], for which the values for the half-inhibitory concentration (IC50) in data set [1] (setting [4]) and in data set [2] were 155 nM and 41.4 nM, respectively.
The like results for `CCC(C)(Oc1ccc(C#N)c(Cl)c1)c1ccccc1` (stereo not drawn) [Example 58, 2-Chloro-4-(1-methyl-1-phenyl-propoxy)-benzonitrile] were, in that order, 162 nM and above 1000 nM.
On to `C=CCC(Oc1ccc(C#N)c(C(F)(F)F)c1)c1cccc(O)c1` (racemic) [Example 17, 4-{[1-(3-Hydroxyphenyl)but-3-enyl]oxy}-2-(trifluoromethyl)benzonitrile], for which the IC50 in data set [1] (AR Binding IC50, hAR extract) stood at 14 nM; in data set [2], 105 nM.
Consider `N#Cc1ccc(OCc2ccccc2)cc1C(F)(F)F` [Example 50, 4-Benzyloxy-2-trifluoromethyl-benzonitrile], for which the values for the half-maximal inhibitory concentration (IC50) in data set [1] (setting [4]) and in data set [2] were 174 nM and 508 nM, respectively.
As for `CCC(Oc1ccc(C#N)c(C(F)(F)F)c1)c1cccc(O)c1` (racemic) [Example 11, 4-[1-(3-Hydroxyphenyl)propoxy]-2-(trifluoromethyl)benzonitrile], the IC50 was 11 nM in data set [1] (AR Binding IC50, hAR extract) and above 1000 nM in data set [2].

Broadly, the IC50 is the midpoint of a concentration-inhibition curve. What is called melting point is the temperature, or range, at which the solid turns liquid.
